Experimental data published in patent publication US20200002354A1, “HEXAHYDROPYRAZINOBENZ- OR -PYRIDO-OXAZEPINES CARRYING AN OXYGEN-CONTAINING SUBSTITUENT AND USE THEREOF IN THE TREATMENT OF 5-HT2C-DEPENDENT DISORDERS” (AbbVie Deutschland GmbH & Co. KG, priority 2015, published 2020).
Like-named read-outs stand apart in the source and are kept apart here.

What was measured:
[1] = Metabolic stability in human liver microsomes, unbound intrinsic clearance; assay type: in vitro ADME; details: pH 7.4
How it was run: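 Compound at 0.5 μM incubated with human liver microsomes (0.25 mg/mL) in 0.05 M potassium phosphate pH 7.4 at 37° C, started with 1.0 mM NADPH; sampled 0–30 min, parent quantified by LC-MS/MS. First-order t1/2 gives CLint (uL/min/mg), scaled to L/h/kg; unbound CLint = CLint/fu mic.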

human 5-HT2A receptor = biological target: T1, human 5-HT2A receptor (Homo sapiens, UniProt P28223); assay: Human 5-HT2A functional assay (calcium mobilisation in CHO-K1 cells, FLIPR); assay type: cell-based; details: based on agonism: EC50 5-HT2A/EC50 5-HT2C
T1 construct: expressed in transfected cells; host or cells: CHO-K1
T1 sequence (P28223 whole entry): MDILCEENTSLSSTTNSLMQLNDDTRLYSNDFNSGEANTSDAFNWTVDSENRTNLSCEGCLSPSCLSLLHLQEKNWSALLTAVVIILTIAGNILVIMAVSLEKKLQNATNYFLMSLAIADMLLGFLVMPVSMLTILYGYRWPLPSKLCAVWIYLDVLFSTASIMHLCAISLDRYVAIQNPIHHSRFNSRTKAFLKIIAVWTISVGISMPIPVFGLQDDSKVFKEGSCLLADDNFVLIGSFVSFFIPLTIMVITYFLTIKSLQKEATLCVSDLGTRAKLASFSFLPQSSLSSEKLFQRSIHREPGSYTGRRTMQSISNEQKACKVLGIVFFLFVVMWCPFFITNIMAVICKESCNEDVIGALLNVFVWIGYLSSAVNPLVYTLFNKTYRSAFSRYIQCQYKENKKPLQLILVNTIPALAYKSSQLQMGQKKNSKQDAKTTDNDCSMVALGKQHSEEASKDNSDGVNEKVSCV
How it was run: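 CHO-K1 cells stably expressing human 5-HT2A, serum-starved overnight and loaded with calcium dye plus 0.07% probenecid, were given compound (10^−10 to 10^−5 M) for agonism, then serotonin at 3×10^−8 M after 8 min for antagonism. FLIPR calcium responses were normalised to serotonin maximum, and EC50/IC50 came from four-parameter fits, with Kb via Cheng–Prusoff.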

human 5-HT2B receptor = biological target: T2, human 5-HT2B receptor (Homo sapiens, UniProt P41595); assay: Human 5-HT2B functional assay (calcium mobilisation in CHO-FlpIn cells, FLIPR); assay type: cell-based; details: based on agonism: EC50 5-HT2B/EC50 5-HT2C
T2 construct: expressed in transfected cells; host or cells: CHO-FlpIn
T2 sequence (P41595 whole entry): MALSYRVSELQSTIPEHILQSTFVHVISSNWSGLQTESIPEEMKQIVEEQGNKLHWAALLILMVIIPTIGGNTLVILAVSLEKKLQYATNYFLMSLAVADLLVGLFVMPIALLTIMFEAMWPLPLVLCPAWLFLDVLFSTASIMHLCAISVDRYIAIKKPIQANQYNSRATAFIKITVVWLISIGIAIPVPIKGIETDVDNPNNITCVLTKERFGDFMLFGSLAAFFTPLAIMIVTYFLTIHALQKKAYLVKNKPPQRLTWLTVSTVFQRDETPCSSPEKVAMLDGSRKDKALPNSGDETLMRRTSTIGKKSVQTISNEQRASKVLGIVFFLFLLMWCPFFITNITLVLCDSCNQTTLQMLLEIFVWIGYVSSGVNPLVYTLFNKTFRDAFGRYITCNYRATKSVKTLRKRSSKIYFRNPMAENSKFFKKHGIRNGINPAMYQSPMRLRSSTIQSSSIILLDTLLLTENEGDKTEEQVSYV
How it was run: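 CHO-FlpIn cells stably expressing human 5-HT2B, serum-starved 4 h and Ca5 dye-loaded, received compound (10^−10 to 10^−5 M) for agonism, then 10^−8 M serotonin after 8 min for antagonism; peak calcium read by FLIPR. Efficacy as % serotonin maximum; EC50/IC50 from four-parameter fits, Kb via Cheng–Prusoff.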

5-HT2C receptor = biological target: T3, 5-HT2C receptor (Homo sapiens, UniProt P28335); assay: Human 5-HT2C functional assay (beta-arrestin2 recruitment, U2OS_HTR2C_β-Arrestin cells); assay type: cell-based; details: for Emax: relative efficacy vs maximal effect induced by 5-HT (defined as 100%)
T3 construct: host or cells: U2OS
T3 sequence (P28335 33-458): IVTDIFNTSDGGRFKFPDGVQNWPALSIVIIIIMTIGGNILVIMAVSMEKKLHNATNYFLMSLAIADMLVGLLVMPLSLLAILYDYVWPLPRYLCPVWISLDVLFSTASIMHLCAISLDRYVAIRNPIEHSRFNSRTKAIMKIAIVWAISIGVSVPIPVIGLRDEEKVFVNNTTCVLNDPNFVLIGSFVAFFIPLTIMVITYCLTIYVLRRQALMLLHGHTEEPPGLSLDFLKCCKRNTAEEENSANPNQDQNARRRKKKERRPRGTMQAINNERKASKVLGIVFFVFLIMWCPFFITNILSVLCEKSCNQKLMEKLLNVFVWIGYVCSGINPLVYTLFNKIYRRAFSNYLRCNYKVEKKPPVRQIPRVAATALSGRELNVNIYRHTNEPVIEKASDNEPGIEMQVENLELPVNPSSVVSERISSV
T3 sequence (P32121 whole entry partner): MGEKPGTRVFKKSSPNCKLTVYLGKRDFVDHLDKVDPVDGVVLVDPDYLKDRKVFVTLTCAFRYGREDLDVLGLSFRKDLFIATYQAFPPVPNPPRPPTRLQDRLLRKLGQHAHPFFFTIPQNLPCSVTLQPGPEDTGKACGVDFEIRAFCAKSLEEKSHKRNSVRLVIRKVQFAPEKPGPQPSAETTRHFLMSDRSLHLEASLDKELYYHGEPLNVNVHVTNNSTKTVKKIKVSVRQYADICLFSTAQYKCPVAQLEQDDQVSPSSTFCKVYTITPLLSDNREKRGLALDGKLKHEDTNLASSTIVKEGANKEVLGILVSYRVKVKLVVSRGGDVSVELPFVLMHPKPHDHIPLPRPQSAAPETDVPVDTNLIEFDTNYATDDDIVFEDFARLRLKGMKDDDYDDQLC
How it was run: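 U2OS cells expressing human 5-HT2C with β-arrestin2 enzyme-fragment complementation; switched to 1% serum medium 24 h after plating, compounds added next day for 1.5 h. β-Galactosidase activity read by chemiluminescence; response expressed as percent of 10 μM 5-HT or maximal 5-HT effect (relative efficacy).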

[2] = liver microsomes, unbound intrinsic clearance (human), Clint unbound = Cl int/fu mic, read-out: Cl int, mic unb. (h)
[3] = Potency (EC50 5-HT2C) in functional assay, agonism, read-out: EC50 5-HT2C

Row | Compound | CLint scaled at 0.5 μM [1, 2] [mL/min/kg] | Selectivity over 5-HT2A (human 5-HT2A receptor) | Selectivity over 5-HT2B (human 5-HT2B receptor) | EC50 (5-HT2C receptor; [3]) [nM] | Emax (5-HT2C receptor) [%] | CLint scaled at 0.5 μM ([1]; human, microsomes) [mL/min/kg] | EC50 (5-HT2C receptor) [nM]
1 | COC[C@H]1C[C@@H]2CNCCN2c2c(F)c(F)cc(Cl)c2O1.Cl [Example 37, (4aR,6R)-8-Chloro-10,11-difluoro-6-(methoxymethyl)-2,3,4,4a,5,6-hexahydro-1H-pyrazino[2,1-d][1,5]benzoxazepine hydrochloride] | < 83.3 | + (from 10 to 30) | + (from 10 to 30) | 200 to 1000 | 30 to 50 |  | 
2 | COC[C@@H]1C[C@@H]2CNCCN2c2c(F)c(F)cc(Cl)c2O1.Cl [Example 16, (4aR,6S)-8-Chloro-10,11-difluoro-6-(methoxymethyl)-2,3,4,4a,5,6-hexahydro-1H-pyrazino[2,1-d][1,5]benzoxazepine hydrochloride] | < 83.3 | +++ (>100) | +++ (>100) | < 20 | > 70 |  | 
3 | COC[C@@H]1C[C@@H]2CNCCN2c2ccc(C)c(F)c2O1 [Example 30, (4aR,6S)-8-Fluoro-6-(methoxymethyl)-9-methyl-2,3,4,4a,5,6-hexahydro-1H-pyrazino[2,1-d][1,5]benzoxazepine] | < 83.3 | ++ (from >30 to 100) | ++ (from >30 to 100) | 20 to 200 | 50 to 70 |  | 
4 | COC[C@@H]1C[C@@H]2CNCCN2c2cc(F)cc(C#N)c2O1.Cl [Example 13, (4aR,6S)-10-Fluoro-6-(methoxymethyl)-2,3,4,4a,5,6-hexahydro-1H-pyrazino[2,1-d][1,5]benzoxazepine-8-carbonitrile hydrochloride] | < 83.3 | +++ (>100) | ++ (from >30 to 100) | 20 to 200 | > 70 |  | 
5 | COC[C@@H]1C[C@@H]2CNCCN2c2c(ccc(F)c2F)O1.Cl [Example 21, (4aR,6S)-10,11-Difluoro-6-(methoxymethyl)-2,3,4,4a,5,6-hexahydro-1H-pyrazino[2,1-d][1,5]benzoxazepine hydrochloride] | < 83.3 | ++ (from >30 to 100) | ++ (from >30 to 100) | 20 to 200 | 30 to 50 |  | 
6 | COC[C@@H]1C[C@@H]2CNCCN2c2ccc(F)cc2O1.Cl [Example 51, (4aR,6S)-9-Fluoro-6-(methoxymethyl)-2,3,4,4a,5,6-hexahydro-1H-pyrazino[2,1-d][1,5]benzoxazepine hydrochloride] | < 83.3 | + (from 10 to 30) | ++ (from >30 to 100) | 200 to 1000 | 50 to 70 |  | 
7 | COC[C@@H]1C[C@@H]2CNCCN2c2cc(C)cc(F)c2O1 [Example 33, (4aR,6S)-8-Fluoro-6-(methoxymethyl)-10-methyl-2,3,4,4a,5,6-hexahydro-1H-pyrazino[2,1-d][1,5]benzoxazepine] | < 83.3 | + (from 10 to 30) | + (from 10 to 30) | 200 to 1000 | 50 to 70 |  | 
8 | COC[C@@H]1C[C@@H]2CNCCN2c2cc(Cl)cc(Cl)c2O1 [Example 52, (4aR,6S)-8,10-Dichloro-6-(methoxymethyl)-2,3,4,4a,5,6-hexahydro-1H-pyrazino[2,1-d][1,5]benzoxazepine] | < 83.3 | +++ (>100) | ++ (from >30 to 100) | 20 to 200 | > 70 |  | 
9 | COC[C@H]1C[C@@H]2CNCCN2c2cc(F)cc(Cl)c2O1.Cl [Example 35, (4aR,6R)-8-Chloro-10-fluoro-6-(methoxymethyl)-2,3,4,4a,5,6-hexahydro-1H-pyrazino[2,1-d][1,5]benzoxazepine hydrochloride] | < 83.3 | ++ (from >30 to 100) | + (from 10 to 30) | 20 to 200 | > 70 |  | 
10 | COC[C@@H]1C[C@@H]2CNCCN2c2cc(F)c(F)c(Cl)c2O1.Cl [Example 38, (4aR,6S)-8-Chloro-9,10-difluoro-6-(methoxymethyl)-2,3,4,4a,5,6-hexahydro-1H-pyrazino[2,1-d][1,5]benzoxazepine hydrochloride] | < 83.3 | ++ (from >30 to 100) | ++ (from >30 to 100) | < 20 | > 70 |  | 
11 | COC[C@@H]1C[C@@H]2CNCCN2c2cccc(C#N)c2O1.Cl [Example 12, (4aR,6S)-6-(Methoxymethyl)-2,3,4,4a,5,6-hexahydro-1H-pyrazino[2,1-d][1,5]benzoxazepine-8-carbonitrile hydrochloride] | 83.3 to 833 | +++ (>100) | + (from 10 to 30) | 20 to 200 | > 70 |  | 
12 | COC[C@@H]1C[C@@H]2CNCCN2c2cc(F)ccc2O1.Cl [Example 8, (4aR,6S)-10-Fluoro-6-(methoxymethyl)-2,3,4,4a,5,6-hexahydro-1H-pyrazino[2,1-d][1,5]benzoxazepine hydrochloride] | < 83.3 | +++ (>100) | +++ (>100) | 20 to 200 | > 70 |  | 
13 | COC[C@H]1C[C@@H]2CNCCN2c2cc(F)cc(C(F)F)c2O1.Cl [Example 32, (4aR,6R)-8-(Difluoromethyl)-10-fluoro-6-(methoxymethyl)-2,3,4,4a,5,6-hexahydro-1H-pyrazino[2,1-d][1,5]benzoxazepine hydrochloride] | < 83.3 | ++ (from >30 to 100) | ++ (from >30 to 100) | 200 to 1000 | > 70 |  | 
14 | COC[C@@H]1C[C@@H]2CNCCN2c2ccccc2O1.O=C(O)C(F)(F)F [Example 3, (4aR,6S)-6-(Methoxymethyl)-2,3,4,4a,5,6-hexahydro-1H-pyrazino[2,1-d][1,5]benzoxazepine; 2,2,2-trifluoroacetic acid] |  | + (from 10 to 30) | + (from 10 to 30) |  | 50 to 70 | < 83.3 | 200 to 1000
15 | COC[C@@H]1C[C@@H]2CNCCN2c2ccc(F)c(Cl)c2O1.Cl [Example 5, (4aR,6S)-8-Chloro-9-fluoro-6-(methoxymethyl)-2,3,4,4a,5,6-hexahydro-1H-pyrazino[2,1-d][1,5]benzoxazepine hydrochloride] | < 83.3 | +++ (>100) | + (from 10 to 30) | < 20 | > 70 |  | 
